Laboratory results as given in PubChem BioAssay AID248 (DTP/NCI, 2004).
Several values for one entry are separate records, joined by “and”; a condition that tells them apart may be missing. Equal values may be shown once. Toxic doses and inconclusive results are not listed. No stated cut-off is given here; in the data, active means T/C of 150% or more; inactive means T/C below 125%.

Test system: L1210 leukemia ip in BDF1 mice, survival T/C
Assay: NCI In Vivo Anticancer Drug Screen. Data for tumor model L1210 Leukemia (intraperitoneal) in B6D2F1 (BDF1) mice
Settings: endpoint: mean survival time, higher = longer survival
Procedure, shortened: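 Mice bearing the transplanted tumor received compound or vehicle. Survival of the treated group was divided by that of the vehicle-treated control group to give the ratio.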

[1] = dose: 25.0 mg/kg/injection, schedule: Q01DX009 (ip), vehicle: saline
[2] = dose: 50.0 mg/kg/injection, schedule: Q01DX009 (ip), vehicle: saline
[3] = dose: 100.0 mg/kg/injection, schedule: Q04DX003 (ip), vehicle: saline
[4] = dose: 200.0 mg/kg/injection, schedule: Q04DX003 (ip), vehicle: saline
[5] = dose: 100.0 mg/kg/injection, schedule: Q01DX001 (ip), vehicle: Klucel (hydroxypropylcellulose) (HPC)
[6] = dose: 100.0 mg/kg/injection, schedule: Q01DX001 (ip), vehicle: saline
[7] = dose: 200.0 mg/kg/injection, schedule: Q01DX001 (ip), vehicle: saline
[8] = dose: 400.0 mg/kg/injection, schedule: Q01DX001 (ip), vehicle: saline
[9] = dose: 100.0 mg/kg/injection, schedule: Q01DX009 (ip), vehicle: saline with Tween-80
[10] = dose: 100.0 mg/kg/injection, schedule: Q04DX003 (ip), vehicle: saline with Tween-80
[11] = dose: 200.0 mg/kg/injection, schedule: Q01DX009 (ip), vehicle: saline with Tween-80
[12] = dose: 200.0 mg/kg/injection, schedule: Q04DX003 (ip), vehicle: saline with Tween-80
[13] = dose: 400.0 mg/kg/injection, schedule: Q04DX003 (ip), vehicle: saline with Tween-80
[14] = dose: 400.0 mg/kg/injection, schedule: Q01DX009 (ip), vehicle: saline with Tween-80

Measured: T/C

CCCCNc1ccc(S(=O)(=O)c2ccc(NCCCC)c([N+](=O)[O-])c2)cc1[N+](=O)[O-]
inactive: dose: 1.56 mg/kg/injection, schedule: Q01DX009 (ip), vehicle: DMSO 89 % of control | dose: 3.12 mg/kg/injection, schedule: Q01DX009 (ip), vehicle: DMSO 101 % of control | dose: 6.25 mg/kg/injection, schedule: Q01DX009 (ip), vehicle: DMSO 101 % of control | dose: 25.0 mg/kg/injection, schedule: Q01DX009 (ip), vehicle: DMSO 102 % of control | dose: 100.0 mg/kg/injection, schedule: Q01DX005 (ip), vehicle: DMSO 105 % of control | dose: 100.0 mg/kg/injection, schedule: Q01DX009 (ip), vehicle: DMSO 100 % of control | dose: 100.0 mg/kg/injection, schedule: Q04DX002 (ip), vehicle: DMSO 103 % of control | dose: 200.0 mg/kg/injection, schedule: Q01DX005 (ip), vehicle: DMSO 90 % of control | dose: 200.0 mg/kg/injection, schedule: Q04DX002 (ip), vehicle: DMSO 111 % of control | dose: 400.0 mg/kg/injection, schedule: Q01DX005 (ip), vehicle: DMSO 93 % of control | dose: 400.0 mg/kg/injection, schedule: Q04DX002 (ip), vehicle: DMSO 103 % of control

CC(NC(=O)c1ccccc1)C(=O)NC(CSC(c1ccccc1)c1ccccc1)C(=O)O (stereo not given)
inactive: [1] 102 % of control | [2] 100 % of control | dose: 100.0 mg/kg/injection, schedule: Q01DX009 (ip), vehicle: saline 93 % of control and 90 % of control | [3] 94 % of control | [4] 100 % of control

CCCCCCCCC1OCC(C)O1 (stereo not given)
inactive: dose: 24.0 mg/kg/injection, schedule: Q01DX Z (ip), vehicle: methylcellulose (MC) 94 % of control and 92 % of control | dose: 37.0 mg/kg/injection, schedule: Q01DX Z (ip), vehicle: methylcellulose (MC) 96 % of control and 107 % of control | dose: 55.0 mg/kg/injection, schedule: Q01DX Z (ip), vehicle: methylcellulose (MC) 86 % of control | dose: 82.5 mg/kg/injection, schedule: Q01DX Z (ip), vehicle: methylcellulose (MC) 97 % of control and 92 % of control | dose: 124.0 mg/kg/injection, schedule: Q01DX Z (ip), vehicle: methylcellulose (MC) 94 % of control

O=c1cc(Cc2ccc(F)cc2)[nH]c(=O)[nH]1
inactive: dose: 25.0 mg/kg/injection, schedule: Q01DX001 (ip), vehicle: Klucel (hydroxypropylcellulose) (HPC) 97 % of control | dose: 50.0 mg/kg/injection, schedule: Q01DX001 (ip), vehicle: Klucel (hydroxypropylcellulose) (HPC) 101 % of control | [5] 96 % of control

ClCc1ccc2ccc3cccc4ccc1c2c34
inactive: dose: 5.0 mg/kg/injection, schedule: Q01DX009 (ip), vehicle: carboxymethylcellulose (CMC) 109 % of control | dose: 10.0 mg/kg/injection, schedule: Q01DX009 (ip), vehicle: carboxymethylcellulose (CMC) 110 % of control | dose: 12.5 mg/kg/injection, schedule: Q01DX009 (ip), vehicle: carboxymethylcellulose (CMC) 109 % of control | dose: 20.0 mg/kg/injection, schedule: Q01DX009 (ip), vehicle: carboxymethylcellulose (CMC) 121 % of control | dose: 25.0 mg/kg/injection, schedule: Q01DX009 (ip), vehicle: carboxymethylcellulose (CMC) 97 % of control

Cc1cc2ccccc2c[n+]1C
inactive: dose: 12.5 mg/kg/injection, schedule: Q01DX009 (ip), vehicle: saline 95 % of control | dose: 12.5 mg/kg/injection, schedule: Q04DX003 (ip), vehicle: saline 106 % of control | [1] 101 % of control | dose: 25.0 mg/kg/injection, schedule: Q04DX003 (ip), vehicle: saline 90 % of control | [2] 108 % of control | dose: 50.0 mg/kg/injection, schedule: Q04DX003 (ip), vehicle: saline 107 % of control

Cc1ccc(-c2nc(C#N)c(C#N)nc2-c2ccc(C)cc2)cc1
inactive: [6] 98 % of control | [7] 101 % of control | [8] 101 % of control

Clc1ccccc1C=NC1CCCCC1
inactive: dose: 100.0 mg/kg/injection, schedule: Q04DX002 (ip), vehicle: saline with Tween-80 96 % of control | dose: 200.0 mg/kg/injection, schedule: Q04DX002 (ip), vehicle: saline with Tween-80 96 % of control | dose: 400.0 mg/kg/injection, schedule: Q04DX002 (ip), vehicle: saline with Tween-80 93 % of control

O=C(COc1ccc(Cl)cc1Cl)Nc1ncn[nH]1
inactive: [5] 101 % of control | dose: 200.0 mg/kg/injection, schedule: Q01DX001 (ip), vehicle: Klucel (hydroxypropylcellulose) (HPC) 104 % of control | dose: 400.0 mg/kg/injection, schedule: Q01DX001 (ip), vehicle: Klucel (hydroxypropylcellulose) (HPC) 95 % of control

c1ccc(OB(Oc2ccccc2)Oc2ccccc2)cc1
inactive: [6] 95 % of control | [7] 95 % of control | [8] 106 % of control

O=C(C[N+]12CCC(O)C1C(CO)CC2)c1ccc(Br)cc1 (stereo not given)
inactive: [3] 96 % of control | [4] 89 % of control

Nc1nc2c(c(=O)[nH]1)NC(CCNc1ccc(C(=O)NC(CCC(=O)O)C(=O)O)cc1)CN2 (stereo not given)
inactive: dose: 50.0 mg/kg/injection, schedule: Q01DX001 (ip), vehicle: other 104 % of control | dose: 50.0 mg/kg/injection, schedule: Q01DX001 (ip), vehicle: saline 113 % of control | dose: 100.0 mg/kg/injection, schedule: Q01DX001 (ip), vehicle: other 101 % of control | [6] 116 % of control | dose: 108.0 mg/kg/injection, schedule: Q01DX009 (ip), vehicle: other 119 % of control | dose: 200.0 mg/kg/injection, schedule: Q01DX001 (ip), vehicle: other 110 % of control | [7] 107 % of control | dose: 300.0 mg/kg/injection, schedule: Q01DX009 (ip), vehicle: other 116 % of control | dose: 400.0 mg/kg/injection, schedule: Q01DX001 (ip), vehicle: other 110 % of control | [8] 115 % of control | dose: 500.0 mg/kg/injection, schedule: Q01DX009 (ip), vehicle: other 112 % of control

C/C(CC(O)(C(F)(F)Cl)C(F)(F)Cl)=N\O
inactive: [9] 92 % of control | [10] 107 % of control | [11] 97 % of control | [12] 93 % of control | [13] 93 % of control

c1ccc2cc3c(cc2c1)Nc1cc2ccccc2cc1N3
inactive: [9] 93 % of control | [10] 97 % of control | [11] 93 % of control | [12] 101 % of control | [14] 88 % of control | [13] 103 % of control

O=C(OC1COC(OC(=O)c2ccc([N+](=O)[O-])cc2)C(OC(=O)c2ccc([N+](=O)[O-])cc2)C1OC(=O)c1ccc([N+](=O)[O-])cc1)c1ccc([N+](=O)[O-])cc1 (stereo not given)
inactive: [6] 93 % of control | [7] 96 % of control | [8] 96 % of control

CC(=O)N(C)c1ccc(NC(=O)Nc2cccc(C(F)(F)F)c2)cc1
inactive: [9] 94 % of control | [11] 99 % of control | [14] 97 % of control

CC(Br)CNC(=O)c1ccc([N+](=O)[O-])cc1 (stereo not given)
inactive: dose: 75.0 mg/kg/injection, schedule: Q01DX009 (ip), vehicle: Klucel (hydroxypropylcellulose) (HPC) 107 % of control | dose: 150.0 mg/kg/injection, schedule: Q01DX009 (ip), vehicle: Klucel (hydroxypropylcellulose) (HPC) 97 % of control | dose: 300.0 mg/kg/injection, schedule: Q01DX009 (ip), vehicle: Klucel (hydroxypropylcellulose) (HPC) 101 % of control
